# From PubChem BioAssay AID202 (DTP/NCI, 2004)
# Several values for one entry are separate records, joined by “and”; a condition that tells them apart may be missing. Equal values may be shown once.
# Test system: HT29 xenograft, nude mice, s.c., tumor weight T/C%
# Test: NCI In Vivo Anticancer Drug Screen. Data for tumor model HT29;CX-1 Human Adenocarcinoma (MER+) (subcutaneous) in NU/NU Swiss (nude) mice
# Details: endpoint: optimum tumor weight change, higher = larger tumour
# Description: The antitumor activity of compounds was measured in mice bearing transplantable tumors. Survival or tumor size were measured and the results are expressed as the measurement made in the treated group (T) divided by the measurement made in the vehicle treated control group (C). The tumor model used in this assay is HT29;CX-1 Human Adenocarcinoma (MER+) (subcutaneous) in NU/NU Swiss (nude) mice
# [1] = dose: 50.0 mg/kg/injection, schedule: Q04DX003 (ip), vehicle: saline
# [2] = dose: 100.0 mg/kg/injection, schedule: Q04DX003 (ip), vehicle: saline
# [3] = dose: 200.0 mg/kg/injection, schedule: Q04DX003 (ip), vehicle: saline
# [4] = dose: 50.0 mg/kg/injection, schedule: Q04DX003 (ip), vehicle: Klucel (hydroxypropylcellulose) (HPC)
# [5] = dose: 100.0 mg/kg/injection, schedule: Q04DX003 (ip), vehicle: Klucel (hydroxypropylcellulose) (HPC)
# [6] = dose: 100.0 mg/kg/injection, schedule: Q04DX003 (ip), vehicle: suspension in saline
# [7] = dose: 200.0 mg/kg/injection, schedule: Q04DX003 (ip), vehicle: suspension in saline
# [8] = dose: 400.0 mg/kg/injection, schedule: Q04DX003 (ip), vehicle: suspension in saline
# [9] = dose: 6.25 mg/kg/injection, schedule: Q04DX003 (ip), vehicle: saline
# [10] = dose: 12.5 mg/kg/injection, schedule: Q04DX003 (ip), vehicle: saline
# [11] = dose: 25.0 mg/kg/injection, schedule: Q04DX003 (ip), vehicle: saline
# [12] = dose: 100.0 mg/kg/injection, schedule: Q04DX003 (ip), vehicle: saline with Tween-80
# [13] = dose: 200.0 mg/kg/injection, schedule: Q04DX003 (ip), vehicle: saline with Tween-80
smiles,measurement,setting,value
CCCCNCCCNCCCNC(=O)c1csc(-c2csc(CCNC(=O)C(NC(=O)C(C)C(O)C(C)NC(=O)C(NC(=O)c3nc(C(CC(N)=O)NCC(N)C(N)=O)nc(N)c3C)C(OC3OC(CO)C(O)C(O)C3OC3OC(CO)C(O)C(OC(N)=O)C3O)c3cnc[nH]3)C(C)O)n2)n1 (stereo not given),T/C,"dose: 7.5 mg/kg/injection, schedule: Q04DX003 (ip), vehicle: saline",75 % of control
same,T/C,"dose: 15.0 mg/kg/injection, schedule: Q04DX003 (ip), vehicle: saline",28 % of control
same,T/C,"dose: 15.0 mg/kg/injection, schedule: Q04DX004 (ip), vehicle: saline",40 % of control
same,T/C,"dose: 30.0 mg/kg/injection, schedule: Q04DX003 (ip), vehicle: saline",19 % of control and 33 % of control
same,T/C,"dose: 30.0 mg/kg/injection, schedule: Q04DX004 (ip), vehicle: saline",38 % of control
same,T/C,"dose: 60.0 mg/kg/injection, schedule: Q04DX003 (ip), vehicle: saline",20 % of control
same,T/C,"dose: 60.0 mg/kg/injection, schedule: Q04DX004 (ip), vehicle: saline",18 % of control
same,T/C,"dose: 120.0 mg/kg/injection, schedule: Q04DX003 (ip), vehicle: saline",2 % of control
Nc1cc2[nH]cnc2c(=O)[nH]1,T/C,[1],89 % of control
same,T/C,[2],83 % of control
same,T/C,[3],93 % of control
CCOC(=O)C1C2OC(=O)C(C(=O)C2CN(CCCl)CCCl)C1C1CC=C(CC2=CCC(C3C4C(=O)OC(C(CN(CCCl)CCCl)C4=O)C3C(=O)OCC)CC2)CC1 (stereo not given),T/C,"dose: 25.0 mg/kg/injection, schedule: Q04DX003 (ip), vehicle: Klucel (hydroxypropylcellulose) (HPC)",91 % of control
same,T/C,[4],66 % of control
same,T/C,[5],69 % of control
CC(=O)OCC1OC(n2ccc(N)nc2=O)C(OC(C)=O)C1OC(C)=O (stereo not given),T/C,[6],65 % of control and 89 % of control
same,T/C,[7],56 % of control
O=CC(S)CO (stereo not given),T/C,[6],119 % of control
same,T/C,[7],96 % of control
same,T/C,[8],107 % of control
COc1cccc2c1C(=O)c1c(O)c3c(c(O)c1C2=O)C[C@@](O)(/C(C)=N\O)C[C@@H]3OC1CC(N)C(O)C(C)O1 (stereo not given in full),T/C,[9],68 % of control
same,T/C,[10],63 % of control
same,T/C,[11],56 % of control
O=C1N[C@@H]([C@H]2CC[C@H](Cl)CN2)C(=O)N[C@H]1[C@H]1CC[C@H](Cl)CN1,T/C,"dose: 0.31 mg/kg/injection, schedule: Q01DX001 (ip), vehicle: water",53 % of control
same,T/C,"dose: 0.63 mg/kg/injection, schedule: Q01DX001 (ip), vehicle: water",64 % of control
same,T/C,"dose: 1.25 mg/kg/injection, schedule: Q01DX001 (ip), vehicle: water",79 % of control
OCC1OC(n2cnc3cncnc32)C(O)C1O (stereo not given),T/C,[10],49 % of control
same,T/C,[11],48 % of control
CNC(=O)ON(C(C)=O)C(=O)NC,T/C,[11],52 % of control
same,T/C,[1],59 % of control
same,T/C,[2],98 % of control
CC(C)=CCNc1ncnc2c1ncn2C1OC(CO)C(O)C1O (stereo not given),T/C,[6],106 % of control
same,T/C,[7],77 % of control
same,T/C,[8],65 % of control
same,T/C,"dose: 800.0 mg/kg/injection, schedule: Q04DX003 (ip), vehicle: suspension in saline",64 % of control
NC(=S)N/N=C/c1ccc(O)cn1,T/C,"dose: 150.0 mg/kg/injection, schedule: Q04DX003 (ip), vehicle: saline with Tween-80",63 % of control
same,T/C,"dose: 300.0 mg/kg/injection, schedule: Q04DX003 (ip), vehicle: saline with Tween-80",70 % of control
same,T/C,"dose: 600.0 mg/kg/injection, schedule: Q04DX003 (ip), vehicle: saline with Tween-80",87 % of control
C=CC(=O)NCNC(=O)C=C,T/C,[1],78 % of control
same,T/C,[2],65 % of control
same,T/C,[3],60 % of control
CN(N=O)C(=O)N[C@@H](C=O)[C@@H](O)[C@H](O)[C@H](O)CO,T/C,[2],82 % of control
same,T/C,[3],98 % of control
O=C(O)C1(C(=O)O)CCC1.[NH2-].[NH2-].[Pt+2],T/C,"dose: 6.25 mg/kg/injection, schedule: Q04DX003 (ip), vehicle: dextrose",109 % of control
same,T/C,"dose: 25.0 mg/kg/injection, schedule: Q04DX003 (ip), vehicle: dextrose",69 % of control
O=c1[nH]cnc2n[nH]nc12,T/C,[5],67 % of control
same,T/C,"dose: 200.0 mg/kg/injection, schedule: Q04DX003 (ip), vehicle: Klucel (hydroxypropylcellulose) (HPC)",67 % of control
same,T/C,"dose: 400.0 mg/kg/injection, schedule: Q04DX003 (ip), vehicle: Klucel (hydroxypropylcellulose) (HPC)",31 % of control
O=C/C(Cl)=C(/Cl)C(=O)O,T/C,"dose: 12.5 mg/kg/injection, schedule: Q04DX003 (ip), vehicle: saline with Tween-80",86 % of control
CSc1cc(=O)n2c3ccccc3c3ccnc1c32,T/C,"dose: 20.0 mg/kg/injection, schedule: Q04DX003 (ip), vehicle: saline with Tween-80",101 % of control
same,T/C,"dose: 160.0 mg/kg/injection, schedule: Q04DX003 (ip), vehicle: saline with Tween-80",89 % of control and 99 % of control
same,T/C,"dose: 320.0 mg/kg/injection, schedule: Q04DX003 (ip), vehicle: saline with Tween-80",82 % of control
same,T/C,"dose: 640.0 mg/kg/injection, schedule: Q04DX003 (ip), vehicle: saline with Tween-80",81 % of control
O=C[C@@H](CO)O[C@H](C=O)n1cnc2c(=O)[nH]cnc21,T/C,[2],57 % of control
same,T/C,[3],85 % of control
same,T/C,"dose: 400.0 mg/kg/injection, schedule: Q04DX003 (ip), vehicle: saline",48 % of control
C=C(C)[C@H]1Cc2c(ccc3c2O[C@@H]2COc4cc(OC)c(OC)cc4[C@@H]2C3=O)O1,T/C,"dose: 3.0 mg/kg/injection, schedule: Q04DX003 (ip), vehicle: suspension in saline",90 % of control
same,T/C,"dose: 6.0 mg/kg/injection, schedule: Q04DX003 (ip), vehicle: suspension in saline",77 % of control
same,T/C,"dose: 12.0 mg/kg/injection, schedule: Q04DX003 (ip), vehicle: suspension in saline",91 % of control
same,T/C,[10],70 % of control
same,T/C,[11],102 % of control
same,T/C,[1],50 % of control
COc1cc([C@@H]2c3cc4c(c(O)c3C[C@H]3COC(=O)[C@@H]32)OCO4)cc(OC)c1O,T/C,"dose: 3.13 mg/kg/injection, schedule: Q04DX003 (ip), vehicle: saline",63 % of control
same,T/C,[9],53 % of control
N/C(=N\O)c1cn(C2OC(CO)C(O)C2O)c2ncnc(N)c12 (stereo not given),T/C,"dose: 5.0 mg/kg/injection, schedule: Q04DX003 (ip), vehicle: Klucel (hydroxypropylcellulose) (HPC)",91 % of control
same,T/C,"dose: 10.0 mg/kg/injection, schedule: Q04DX003 (ip), vehicle: Klucel (hydroxypropylcellulose) (HPC)",63 % of control
same,T/C,"dose: 20.0 mg/kg/injection, schedule: Q04DX003 (ip), vehicle: Klucel (hydroxypropylcellulose) (HPC)",47 % of control
O=C1N(Cl)C(=O)C(c2ccc(Cl)cc2)(c2ccc(Cl)cc2)N1Cl,T/C,[12],103 % of control
same,T/C,[13],108 % of control
N=c1ccn2c(n1)OC1C(O)C(CO)OC12 (stereo not given),T/C,[1],70 % of control
same,T/C,[2],49 % of control
same,T/C,[3],71 % of control and 77 % of control
same,T/C,"dose: 800.0 mg/kg/injection, schedule: Q04DX003 (ip), vehicle: saline",40 % of control
Oc1ccc(O)cc1,T/C,[1],173 % of control
CC(=O)OCC1OC(n2cc(CBr)nn2)C(OC(C)=O)C(OC(C)=O)C1OC(C)=O (stereo not given),T/C,"dose: 50.0 mg/kg/injection, schedule: Q04DX003 (ip), vehicle: saline with Tween-80",78 % of control
same,T/C,[12],92 % of control
same,T/C,[13],69 % of control
CCCC(=O)OCc1cc(=O)n(C)c2c3c4c(cc12)c(C)cc(=O)n4CO3,T/C,[4],53 % of control
CC(=O)Oc1ccc[nH]c1=O,T/C,[13],96 % of control
same,T/C,"dose: 400.0 mg/kg/injection, schedule: Q04DX003 (ip), vehicle: saline with Tween-80",111 % of control
O=[N+]([O-])/C=C\c1ccc2c(c1)OCO2,T/C,[4],116 % of control
